# Laboratory results taken from patent US7691858B2, “Kinase inhibitors and methods of use thereof” (TargeGen, Inc., priority 2006, dated 2010).
# Key:
# PKB 3 = PKB 3 (Homo sapiens, UniProt P31751); test: Kinase panel screen; type: biochemical; conditions: read-out: Percent Control, PKB 3
# ALK4 = biological target: T1, ALK4 (Homo sapiens, UniProt P36896); test: Kinase panel screen; type: biochemical; conditions: Compound I and ATP 10 μM
# T1 construct: purchased Upstate USA or Invitrogen (commercial screening service)
# T1 sequence (P36896 24-505): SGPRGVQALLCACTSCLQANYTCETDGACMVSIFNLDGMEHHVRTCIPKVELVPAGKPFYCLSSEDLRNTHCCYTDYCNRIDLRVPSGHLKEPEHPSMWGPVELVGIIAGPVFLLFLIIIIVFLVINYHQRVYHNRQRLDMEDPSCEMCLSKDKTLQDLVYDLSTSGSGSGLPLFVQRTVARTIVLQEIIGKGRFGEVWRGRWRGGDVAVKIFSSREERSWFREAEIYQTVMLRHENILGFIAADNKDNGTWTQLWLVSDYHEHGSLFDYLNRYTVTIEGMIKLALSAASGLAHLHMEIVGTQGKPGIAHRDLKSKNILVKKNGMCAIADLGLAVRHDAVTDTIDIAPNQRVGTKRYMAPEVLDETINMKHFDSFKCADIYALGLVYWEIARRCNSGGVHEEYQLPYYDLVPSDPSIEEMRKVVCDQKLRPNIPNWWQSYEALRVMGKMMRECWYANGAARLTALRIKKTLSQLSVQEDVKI
# Fyn = biological target: T2, Fyn (Homo sapiens, UniProt P06241); test: Kinase panel screen; type: biochemical; conditions: Compound I and ATP 10 μM
# T2 construct: purchased Upstate USA or Invitrogen (commercial screening service)
# KDR = biological target: T3, KDR (Homo sapiens, UniProt P35968); test: Kinase panel screen; type: biochemical; conditions: Compound I and ATP 10 μM
# T3 construct: purchased Upstate USA or Invitrogen (contract screening service)
# HIPK2 = biological target: T4, HIPK2 (Homo sapiens, UniProt Q9H2X6); test: Kinase panel screen; type: biochemical; conditions: Compound I and ATP 10 μM
# T4 construct: purchased Upstate USA or Invitrogen (commercial screening service)
# SGK = biological target: T5, SGK (Homo sapiens, UniProt O00141, S422D); test: Kinase panel screen; type: biochemical; conditions: Compound I and ATP 10 μM
# T5 construct: purchased Upstate USA or Invitrogen (commercial screening service)
# MKK7b = biological target: T6, MKK7b (Homo sapiens, UniProt O14733); test: Kinase panel screen; type: biochemical; conditions: Compound I and ATP 10 μM
# T6 construct: purchased Upstate USA or Invitrogen (contract screening service)
# T6 sequence (O14733 whole entry): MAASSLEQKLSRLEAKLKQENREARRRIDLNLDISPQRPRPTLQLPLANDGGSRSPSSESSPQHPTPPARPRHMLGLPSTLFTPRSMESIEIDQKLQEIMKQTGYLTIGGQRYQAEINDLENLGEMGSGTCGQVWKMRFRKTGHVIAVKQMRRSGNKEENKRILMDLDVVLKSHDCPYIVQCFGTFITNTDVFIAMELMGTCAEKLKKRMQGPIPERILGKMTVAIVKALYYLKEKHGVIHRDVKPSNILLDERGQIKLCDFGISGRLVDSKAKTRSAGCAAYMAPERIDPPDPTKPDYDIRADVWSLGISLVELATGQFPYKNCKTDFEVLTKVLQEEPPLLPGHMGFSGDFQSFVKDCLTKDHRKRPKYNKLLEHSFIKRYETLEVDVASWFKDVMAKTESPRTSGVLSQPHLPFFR
# EphB4 = biological target: T7, EphB4 (Homo sapiens, UniProt P54760); test: Kinase panel screen; type: biochemical; conditions: Compound I and ATP 10 μM
# T7 construct: purchased Upstate USA or Invitrogen (commercial screening service)
# TrkA = biological target: T8, TrkA (Homo sapiens, UniProt P04629); test: Kinase panel screen; type: biochemical; conditions: Compound I and ATP 10 μM
# T8 construct: purchased Upstate USA or Invitrogen (contract screening service)
# PKA = PKA (Homo sapiens, UniProt P17612); test: Kinase panel screen; type: biochemical; conditions: Compound I and ATP 10 μM
# PKCpi = biological target: T9, PKCpi (Homo sapiens, UniProt P05771); test: Kinase panel screen; type: biochemical; conditions: Compound I and ATP 10 μM
# T9 construct: purchased Upstate USA or Invitrogen (commercial screening service)
# T9 sequence (P05771 whole entry): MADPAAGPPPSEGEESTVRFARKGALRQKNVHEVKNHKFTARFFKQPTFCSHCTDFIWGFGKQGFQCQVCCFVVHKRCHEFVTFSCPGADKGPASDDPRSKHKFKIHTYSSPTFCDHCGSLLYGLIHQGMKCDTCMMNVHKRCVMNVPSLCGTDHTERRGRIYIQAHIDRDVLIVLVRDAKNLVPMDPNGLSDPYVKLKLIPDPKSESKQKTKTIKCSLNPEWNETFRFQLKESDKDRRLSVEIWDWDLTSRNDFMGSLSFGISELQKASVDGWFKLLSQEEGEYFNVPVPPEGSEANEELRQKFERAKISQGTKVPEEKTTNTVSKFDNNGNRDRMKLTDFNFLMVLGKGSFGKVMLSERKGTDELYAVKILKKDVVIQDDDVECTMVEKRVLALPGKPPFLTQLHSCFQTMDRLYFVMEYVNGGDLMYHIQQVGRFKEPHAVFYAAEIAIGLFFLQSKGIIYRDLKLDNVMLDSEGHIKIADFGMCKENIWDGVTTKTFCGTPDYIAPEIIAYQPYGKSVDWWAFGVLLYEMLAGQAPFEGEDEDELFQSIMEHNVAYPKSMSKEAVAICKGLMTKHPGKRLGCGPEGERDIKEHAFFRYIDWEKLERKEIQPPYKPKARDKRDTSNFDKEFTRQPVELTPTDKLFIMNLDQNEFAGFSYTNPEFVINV
# CK18 = biological target: T10, CK18 (Homo sapiens, UniProt P48730); test: Kinase panel screen; type: biochemical; conditions: Compound I and ATP 10 μM
# T10 construct: purchased Upstate USA or Invitrogen (contract screening service)
# Fer = biological target: T11, Fer (Homo sapiens, UniProt P16591); test: Kinase panel screen; type: biochemical; conditions: Compound I and ATP 10 μM
# T11 construct: purchased Upstate USA or Invitrogen (contract screening service)
# Pim-1 = biological target: T12, Pim-1 (Homo sapiens, UniProt P11309); test: Kinase panel screen; type: biochemical; conditions: Compound I and ATP 10 μM
# T12 construct: purchased Upstate USA or Invitrogen (contract screening service)
# T12 sequence (P11309 whole entry): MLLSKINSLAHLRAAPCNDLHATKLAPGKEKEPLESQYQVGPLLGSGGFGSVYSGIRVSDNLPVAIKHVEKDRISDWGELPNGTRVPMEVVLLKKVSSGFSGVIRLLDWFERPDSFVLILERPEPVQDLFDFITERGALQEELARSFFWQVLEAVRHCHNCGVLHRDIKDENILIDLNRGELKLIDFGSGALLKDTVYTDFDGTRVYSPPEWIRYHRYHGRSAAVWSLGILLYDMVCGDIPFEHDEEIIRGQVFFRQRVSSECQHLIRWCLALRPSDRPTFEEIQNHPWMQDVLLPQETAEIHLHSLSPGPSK
# CSK = biological target: T13, CSK (Homo sapiens, UniProt P41240); test: Kinase panel screen; type: biochemical; conditions: Compound I and ATP 10 μM
# T13 construct: purchased Upstate USA or Invitrogen (commercial screening service)
# myocardial infarct = test: Porcine MI model; type: in vivo, pig
# Method: PI3Kγ/δ inhibition limits infarct development in a porcine MI model. In a final series of studies, MIs were modeled in the pig, as this species better approximates human coronary anatomy and responses to myocardial I/R injury. With aggressive model parameters of a 90 min ischemic period, therapeutic dosing 30 min post-reperfusion and infarct measurement at 24 h, we typically observed ischemic zones representing 20-30% of the total LV and 20-30% infarction of this area in control animals. […] Measuring infarct area as percent of total LV ischemic area, infarct size was reduced by 35% (P=0.04). […] Finally, taking advantage of the larger porcine heart to make more detailed measurements, infarct areas within the LV free wall only (as opposed to the free plus attached wall measurements reported up to this point) were also determined, reasoning that free wall infarcts are of greatest relevance to overall myocardial function.
# Porcine MI model: All animal studies followed current “NIH Guidelines for the Use of Laboratory Animals” and were performed according to IACUC-approved protocols. Farm swine (Landrace-Duroc cross, 32-41 kg) were acclimated for 1-3 weeks prior to study group randomization. On the day of surgery, animals (fasted overnight) were first administered aspirin, clopridogrel and nifedipine (650, 300 and 300 mg p.o., respectively), followed by atropine sulfate and telazol (0.05 and 7 mg/kg i.m., respectively). Anesthesia was then induced with ketamine and xylazine (25 mg/kg each i.m.) followed by intubation and maintenance on inhaled isoflurane; body temperature was maintained at 35-37° C. using heating pads. For each animal, the ventral neck was shaved and scrubbed with iodine, an arterial sheath inserted into the carotid artery, and under fluoroscopic guidance a guide catheter advanced to the coronary artery ostium. Angiographic images were used to guide angioplasty balloon placement (below the first major LAD bifurcation). After advancing through the guide catheter to the proper location, the balloon was inflated at a steady rate to a pressure sufficient to ensure complete occlusion of the LAD (verified by fluoroscopy), and occlusion maintained for 90 min. Blood pressure was monitored throughout the surgical procedure and adjusted as needed, and ECG monitored for arrhythmias as well as to confirm LAD occlusion. Lactated Ringer's solution was maintained as an i.v. drip (via the auricular vein), and heparin given to maintain an activated clotting time of ˜300 seconds. […] At the end of the ischemic period, the balloon was deflated and removed, and the ischemic area allowed to reperfuse (again verified by fluoroscopy). Catheters were removed, the arterial access ligated, the surgical area closed in layers and buprenorphine (0.01 mg/kg i.m.) administered.
# On Study Day 2 (24 hr post-LAD occlusion), a surgical plane of anesthesia was established with sodium pentobarbital, and the LAD exposed and occluded using a suture snare at the same level as previously. Evans blue dye (100 ml of 0.1% saline solution) was injected i.v. and allowed to circulate for 5 min prior to explanting the heart. Hearts were cut into approximately 1 cm short axis slices and TTC stained and photographed as described for the rodent MI model. […]
# IGF-1R = biological target: T14, IGF-1R (Homo sapiens, UniProt P08069); test: Kinase panel screen; type: biochemical; conditions: Compound I and ATP 10 μM
# T14 construct: purchased Upstate USA or Invitrogen (commercial screening service)
# T14 sequence (P08069 31-1367): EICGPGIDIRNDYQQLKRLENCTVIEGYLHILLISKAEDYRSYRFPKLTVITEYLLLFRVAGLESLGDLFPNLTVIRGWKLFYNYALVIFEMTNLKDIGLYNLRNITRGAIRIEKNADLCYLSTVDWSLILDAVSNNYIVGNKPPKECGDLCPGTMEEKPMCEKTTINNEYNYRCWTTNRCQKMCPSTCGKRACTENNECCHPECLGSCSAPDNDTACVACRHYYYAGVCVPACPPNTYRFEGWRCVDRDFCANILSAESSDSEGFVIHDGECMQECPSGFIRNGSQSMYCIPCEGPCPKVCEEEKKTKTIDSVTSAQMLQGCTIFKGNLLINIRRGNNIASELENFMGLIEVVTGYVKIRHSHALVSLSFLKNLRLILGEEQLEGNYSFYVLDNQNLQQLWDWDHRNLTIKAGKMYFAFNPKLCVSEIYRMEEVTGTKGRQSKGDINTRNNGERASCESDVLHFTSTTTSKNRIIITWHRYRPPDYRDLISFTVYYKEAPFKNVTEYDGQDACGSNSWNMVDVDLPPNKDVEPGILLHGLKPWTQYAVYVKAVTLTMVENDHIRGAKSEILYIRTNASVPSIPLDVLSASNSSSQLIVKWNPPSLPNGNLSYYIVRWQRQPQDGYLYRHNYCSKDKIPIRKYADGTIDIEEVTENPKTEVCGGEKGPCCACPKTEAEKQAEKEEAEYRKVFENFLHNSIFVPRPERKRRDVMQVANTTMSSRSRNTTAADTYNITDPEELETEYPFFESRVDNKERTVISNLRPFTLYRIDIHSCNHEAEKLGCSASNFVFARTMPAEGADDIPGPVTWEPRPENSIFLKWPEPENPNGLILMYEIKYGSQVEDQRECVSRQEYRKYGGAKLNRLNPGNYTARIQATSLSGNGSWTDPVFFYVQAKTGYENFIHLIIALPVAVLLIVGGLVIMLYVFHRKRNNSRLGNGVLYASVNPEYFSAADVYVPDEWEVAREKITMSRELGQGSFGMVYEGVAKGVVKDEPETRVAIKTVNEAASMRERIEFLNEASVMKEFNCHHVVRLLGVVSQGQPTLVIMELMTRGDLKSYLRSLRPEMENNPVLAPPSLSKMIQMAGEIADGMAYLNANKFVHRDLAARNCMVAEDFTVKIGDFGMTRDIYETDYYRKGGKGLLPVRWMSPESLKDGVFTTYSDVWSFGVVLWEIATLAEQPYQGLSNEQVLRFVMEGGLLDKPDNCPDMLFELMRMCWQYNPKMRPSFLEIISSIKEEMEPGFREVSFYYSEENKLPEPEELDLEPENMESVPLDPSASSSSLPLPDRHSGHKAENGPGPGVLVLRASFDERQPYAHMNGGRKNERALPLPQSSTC
# Lck = biological target: T15, Lck (Homo sapiens, UniProt P06239); test: Kinase panel screen; type: biochemical; conditions: Compound I and ATP 10 μM
# T15 construct: purchased Upstate USA or Invitrogen (contract screening service)
# Pyk2 = biological target: T16, Pyk2 (Homo sapiens, UniProt Q14289); test: Kinase panel screen; type: biochemical; conditions: Compound I and ATP 10 μM
# T16 construct: purchased Upstate USA or Invitrogen (contract screening service)
# T16 sequence (Q14289 whole entry): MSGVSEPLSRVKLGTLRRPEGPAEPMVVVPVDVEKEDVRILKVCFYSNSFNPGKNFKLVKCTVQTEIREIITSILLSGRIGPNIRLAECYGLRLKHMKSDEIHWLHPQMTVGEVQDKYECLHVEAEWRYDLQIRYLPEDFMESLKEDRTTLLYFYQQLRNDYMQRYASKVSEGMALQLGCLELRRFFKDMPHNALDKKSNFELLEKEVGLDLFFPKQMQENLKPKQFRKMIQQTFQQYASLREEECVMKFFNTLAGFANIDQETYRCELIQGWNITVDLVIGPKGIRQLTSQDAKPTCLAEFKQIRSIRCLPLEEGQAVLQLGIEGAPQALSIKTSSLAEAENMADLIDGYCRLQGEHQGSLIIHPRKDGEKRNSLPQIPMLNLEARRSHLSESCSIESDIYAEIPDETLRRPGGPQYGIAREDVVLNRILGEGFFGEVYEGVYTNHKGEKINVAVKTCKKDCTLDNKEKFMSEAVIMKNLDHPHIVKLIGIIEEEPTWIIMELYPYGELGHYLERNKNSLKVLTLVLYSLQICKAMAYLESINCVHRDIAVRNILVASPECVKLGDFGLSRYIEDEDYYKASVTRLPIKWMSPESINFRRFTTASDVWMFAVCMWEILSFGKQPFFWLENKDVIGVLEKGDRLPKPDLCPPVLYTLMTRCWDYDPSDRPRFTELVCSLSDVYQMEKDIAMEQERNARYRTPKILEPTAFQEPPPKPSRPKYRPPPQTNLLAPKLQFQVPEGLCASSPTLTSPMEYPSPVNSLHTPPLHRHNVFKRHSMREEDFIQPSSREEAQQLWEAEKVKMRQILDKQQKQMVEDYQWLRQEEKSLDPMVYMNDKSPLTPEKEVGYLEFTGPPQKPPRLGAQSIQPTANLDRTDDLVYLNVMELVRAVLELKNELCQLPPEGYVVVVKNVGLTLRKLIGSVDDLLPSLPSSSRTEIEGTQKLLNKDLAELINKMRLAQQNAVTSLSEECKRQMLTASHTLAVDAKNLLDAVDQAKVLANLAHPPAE
# PKBy = biological target: T17, PKBy (Homo sapiens, UniProt Q9Y243); test: Kinase panel screen; type: biochemical; conditions: read-out: Percent Control, PKBy
# T17 construct: purchased Upstate USA or Invitrogen (contract screening service)
# CDK3 = biological target: T18, CDK3 (Homo sapiens, UniProt Q00526); test: Kinase panel screen; type: biochemical; conditions: Compound I and ATP 10 μM
# T18 construct: purchased Upstate USA or Invitrogen (commercial screening service)
# T18 sequence (Q00526 whole entry): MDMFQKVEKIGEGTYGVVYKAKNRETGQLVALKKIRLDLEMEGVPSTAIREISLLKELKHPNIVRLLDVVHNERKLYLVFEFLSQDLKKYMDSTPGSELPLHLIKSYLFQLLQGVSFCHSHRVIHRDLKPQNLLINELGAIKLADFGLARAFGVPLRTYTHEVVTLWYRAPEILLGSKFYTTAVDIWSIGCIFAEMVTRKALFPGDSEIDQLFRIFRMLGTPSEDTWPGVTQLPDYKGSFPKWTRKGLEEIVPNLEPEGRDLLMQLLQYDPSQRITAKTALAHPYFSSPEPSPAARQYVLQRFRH
# T18 sequence (P24864 whole entry partner): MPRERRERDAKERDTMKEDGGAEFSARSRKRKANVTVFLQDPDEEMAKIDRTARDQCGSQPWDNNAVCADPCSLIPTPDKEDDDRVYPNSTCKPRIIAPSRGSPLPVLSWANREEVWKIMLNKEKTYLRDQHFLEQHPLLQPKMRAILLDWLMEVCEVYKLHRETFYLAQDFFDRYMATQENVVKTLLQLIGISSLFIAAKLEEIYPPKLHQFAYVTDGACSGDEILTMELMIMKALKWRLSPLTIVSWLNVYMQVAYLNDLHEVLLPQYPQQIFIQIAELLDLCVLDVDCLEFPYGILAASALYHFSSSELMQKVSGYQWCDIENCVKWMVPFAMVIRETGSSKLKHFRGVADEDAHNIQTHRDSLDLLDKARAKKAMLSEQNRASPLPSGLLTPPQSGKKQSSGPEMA
# Fms = biological target: T19, Fms (Homo sapiens, UniProt P07333); test: Kinase panel screen; type: biochemical; conditions: Compound I and ATP 10 μM
# T19 construct: purchased Upstate USA or Invitrogen (commercial screening service)
# GSK3 3 = biological target: T20, GSK3 3 (Homo sapiens, UniProt P49841); test: Kinase panel screen; type: biochemical; conditions: Compound I and ATP 10 μM
# T20 construct: purchased Upstate USA or Invitrogen (commercial screening service)
# [1] = single 0.5 mg/kg i.v. bolus 30 min post-reperfusion, 24 h
compound,measurement,setting,value
"Nc1nc(N)c2nc(-c3cccc(O)c3)c(-c3cccc(O)c3)nc2n1 [Compound I, 6,7-bis-(3-hydroxyphenyl)-pteridine-2,4-diamine]",remaining activity at 10 µM,PKB 3,103%
same,"Percent Control, ALK4",ALK4,91%
same,"Percent Control, Fyn",Fyn,54%
same,"Percent Control, KDR",KDR,62%
same,"Percent Control, HIPK2",HIPK2,87%
same,"Percent Control, SGK",SGK,95%
same,"Percent Control, MKK7b",MKK7b,79%
same,"Percent Control, EphB4",EphB4,68%
same,"Percent Control, TrkA",TrkA,57%
same,"Percent Control, PKA",PKA,93%
same,"Percent Control, PKCpi",PKCpi,90%
same,"Percent Control, CK18",CK18,24%
same,"Percent Control, Fer",Fer,80%
same,"Percent Control, Pim-1",Pim-1,70%
same,"Percent Control, CSK",CSK,114%
same,reduction of infarct size vs. controls,"myocardial infarct; single 0.3 mg/kg IV bolus 30 min post-reperfusion, N=12-13",32%
same,infarct size,"myocardial infarct; single 0.3 mg/kg IV bolus 30 min post-reperfusion, controls 56%",40%
same,increase in viable tissue within the ischemic zone,myocardial infarct; [1],37%
same,reduction of free wall infarct size vs. vehicle-treated controls,myocardial infarct; [1],38%
same,reduction of infarct size (infarct area as percent of total LV ischemic area),myocardial infarct; [1],35%
same,"Percent Control, IGF-1R",IGF-1R,104%
same,"Percent Control, Lck",Lck,52%
same,"Percent Control, Pyk2",Pyk2,68%
same,remaining activity at 10 µM,PKBy,98%
same,"Percent Control, CDK3",CDK3,72%
same,"Percent Control, Fms",Fms,77%
same,"Percent Control, GSK3 3",GSK3 3,p70S6K Percent
